# Assay results published in US12702660B2, “Method for treating cancer with an oral dosage form of an estrogen receptor-alpha inhibitor” (Eisai R&D Management Co., Ltd., priority 2019, dated 2026).
# Like-named read-outs stand apart in the source and are kept apart here.
# What was measured:
# Format in all cases: in vivo, human
# [1] = Plasma PK of 450 mg capsules in fasted and fed patients, dose expansion; conditions: 450 mg QD capsules; for CLss/F / AUC(0-inf) / Cmax / half-life / AUC(0-t) / Vd / Vd/F: Geometric Mean (GeoCV %); for Tlag / Tmax: Median (Min, Max); for AUC0-24 (per 1 mg of API) / AUC0-inf (per 1 mg of API) / AUC0-t (per 1 mg of API) / Cmax (per 1 mg of API): normalized from Table 13; for AUC(0-inf) / Cmax / half-life / AUC(0-t) / Vd / Vd/F / Tmax: human, plasma, oral, 450 mg; for Vd: read-out: Vss; for Vd/F: read-out: Vz/F
# Experimental: Blood samples were collected at the planned time points from each patient and centrifuged. The plasma portion of each sample was then transferred to a K2EDTA tube, which was then shipped to a bioanalytical lab for concentration measurement using LC-MS/MS. The concentration data were then analyzed using Phoenix® WinNonlin software to obtain PK parameters. The obtained PK parameters were further summarized using analytical software.
# Blood samples (approximately 5 mL each) were collected from human patients pre-dose and at various hourly time points post-dose. Plasma concentrations of H3B-6545 were determined using a validated high-performance liquid chromatography/tandem mass spectrometry (LC-MS/MS) method. The lower limit of quantification was 0.100 ng/mL.
# The PK Analysis Set included subjects who received H3B-6545 drug product in capsules or tablets and had sufficient evaluable plasma concentration data to derive at least 1 primary PK parameter in each treatment. Plasma concentrations of H3B-6545 (as free base) were tabulated and summarized at each nominal time using descriptive statistics (number of subjects, arithmetic mean with standard deviation [SD], coefficient of variation [CV %], geometric mean, median, minimum, and maximum) as appropriate. Individual and mean (±SD) plasma concentration-time profiles were provided for each treatment.
# Pharmacokinetic parameters of H3B-6545 were calculated using noncompartmental methods, using an appropriate model for plasma data and extravascular administration. The PK parameters included, but were not limited to, area under the curve to the time of the last quantifiable concentration (AUC0-t), maximum concentration (Cmax), and time at which the maximum concentration occurred (tmax). If data permitted, the area under the plasma concentration-time curve extrapolated to infinity (AUC0-inf), terminal elimination half-life (t1/2), apparent total body clearance (CL/F), total systemic clearance after oral administration at steady state (CLss/F), apparent volume of distribution during the terminal phase (Vz/F), apparent steady-state volume of distribution (Vss), accumulation ratio for Cmax (RCmax) and accumulation ratio of AUC0-24 (RAUC) were also derived.
# Table 3 details PK parameters and profiles of human patients receiving capsules prepared as in Example 1. Patients received a total equivalent dosage of 450 mg of Formula I, as identified in Table 13. Table 14 has normalized the AUC0-t, AUC0-24, AUC0-inf and Cmax PK parameters illustrated in Table 13 to plasma PK parameters per 1 mg of active pharmaceutical ingredient (API).
# [2] = Plasma PK of H3B-6545 capsules in fasted patients, phase 1 dose escalation; conditions: 100 to 450 mg; as of 10 Dec. 2018
# [3] = Safety: treatment-related adverse events and dose-limiting toxicities, phase 1 dose escalation
# Excerpt: Example 3 reports Clinical and Genomics Analysis of a single trial. The Study Population in Example 3 was as follows: • Women ≥18 years old with locally advanced or metastatic ER+HER2−BC. • Progression on at least one hormonal therapy and at least one additional therapy/regimen; no maximum number of prior lines of therapy. • ECOG performance status of 0 or 1. • Adequate bone marrow and organ function. • Excluded if had bone-only disease or inflammatory BC.
# Methods were used to analyze whether H3B-6545 inactivates both wild-type and mutant ERα by targeting cysteine 530 and enforcing a unique antagonist conformation. Methods: Women with locally advanced or metastatic HR+BC are treated (tx) with H3B-6545 drug product administered once daily orally by capsule over a 28 day cycle after progression on at least one hormonal therapy and at least one additional therapy/regimen. Dose escalation uses a 3+3 design with the option to backfill previously cleared doses and allows for intrapatient dose escalation. This example explored the safety, pharmacokinetics and pharmacodynamics of H3B-6545 in women with HR+BC to identify a recommended subsequent dose for testing.
# • H3B-6545 administered once daily orally over a 28 day cycle. • Dose escalation using a standard 3+3 study design using dose cohorts of 100, 200, 300, 450, and 600 mg QD. • Patients allowed to backfill previously cleared doses. • Intra-patient dose escalation allowed after completion of Cycle 3. […]
# [4] = 100 mg QD (N = 6), as of Apr. 20, 2019
# [5] = 200 mg QD (N = 12), as of Apr. 20, 2019
# [6] = 300 mg QD (N = 11), as of Apr. 20, 2019
# [7] = 450 mg QD (N = 10), as of Apr. 20, 2019
# [8] = 600 mg QD (N = 7), as of Apr. 20, 2019
# [9] = Total (N = 46), 100 to 600 mg QD, as of Apr. 20, 2019
# [10] = as of Apr. 20, 2019, 100 to 600 mg QD
smiles,measurement,setting,value
"CN(C)C(=O)/C=C/CNCCOc1ccc(/C(=C(/CC(F)(F)F)c2ccccc2)c2ccc3[nH]nc(F)c3c2)cn1 [H3B-6545, (E)-N,N-dimethyl-4-[2-[5-[(Z)-4,4,4-trifluoro-1-(3-fluoro-1H-indazol-5-yl)-2-phenylbut-1-enyl]pyridin-2-yl]oxyethylamino]but-2-enamide]",CLss/F,[1]; Dose Expansion-Fasted,36.7 (65.4); 18 L/h
same,Tlag,[1]; Dose Expansion-Fasted,0 (0-0); 18 h
same,AUC0-24 (per 1 mg of API),[1]; Dose Expansion-Fasted,27.2 ng·h/mL/mg
same,AUC0-inf (per 1 mg of API),[1]; Dose Expansion-Fasted,36.6 ng·h/mL/mg
same,AUC0-t (per 1 mg of API),[1]; Dose Expansion-Fasted,27.7 ng·h/mL/mg
same,Cmax (per 1 mg of API),[1]; Dose Expansion-Fasted,2.4 ng/mL/mg
same,CLss/F,[1]; Dose Expansion-Fed,20.5 (42.7); 13 L/h
same,Tlag,[1]; Dose Expansion-Fed,0 (0-0); 17 h
same,AUC0-24 (per 1 mg of API),[1]; Dose Expansion-Fed,43.3 ng·h/mL/mg
same,AUC0-inf (per 1 mg of API),[1]; Dose Expansion-Fed,56.8 ng·h/mL/mg
same,AUC0-t (per 1 mg of API),[1]; Dose Expansion-Fed,35.8 ng·h/mL/mg
same,Cmax (per 1 mg of API),[1]; Dose Expansion-Fed,3.5 ng/mL/mg
same,AUC(0-inf),[1]; Dose Expansion-Fasted,16500 ng·h/mL
same,Cmax,[1]; Dose Expansion-Fasted,1090 ng/mL
same,half-life,[1]; Dose Expansion-Fasted,10.9 h
same,AUC(0-t),"[1]; Dose Expansion-Fasted, read-out: AUC0-24",12300 ng·h/mL
same,AUC(0-t),"[1]; Dose Expansion-Fasted, read-out: AUC0-t",12500 ng·h/mL
same,Vd,[1]; Dose Expansion-Fasted,597 L
same,Vd/F,[1]; Dose Expansion-Fasted,566 L
same,Tmax,[1]; Dose Expansion-Fasted,4 h
same,AUC(0-inf),[1]; Dose Expansion-Fed,25500 ng·h/mL
same,Cmax,[1]; Dose Expansion-Fed,1560 ng/mL
same,half-life,[1]; Dose Expansion-Fed,8.83 h
same,AUC(0-t),"[1]; Dose Expansion-Fed, read-out: AUC0-24",19500 ng·h/mL
same,AUC(0-t),"[1]; Dose Expansion-Fed, read-out: AUC0-t",16100 ng·h/mL
same,Vd,[1]; Dose Expansion-Fed,350 L
same,Vd/F,[1]; Dose Expansion-Fed,279 L
same,Tmax,[1]; Dose Expansion-Fed,6 h
same,plasma concentration versus dose,[2],increased with dose
same,Subjects with any TRAE,[3]; [4],4
same,"TRAE Anaemia, subjects",[3]; [4],0
same,"TRAE Aspartate aminotransferase increased, subjects",[3]; [4],0
same,"TRAE Diarrhoea, subjects",[3]; [4],1
same,"TRAE Fatigue, subjects",[3]; [4],1
same,"TRAE Nausea, subjects",[3]; [4],1
same,"TRAE Sinus bradycardia, subjects",[3]; [4],0
same,Subjects with any TRAE,[3]; [5],6
same,"TRAE Anaemia, subjects",[3]; [5],1
same,"TRAE Aspartate aminotransferase increased, subjects",[3]; [5],1
same,"TRAE Diarrhoea, subjects",[3]; [5],1
same,"TRAE Fatigue, subjects",[3]; [5],2
same,"TRAE Nausea, subjects",[3]; [5],0
same,"TRAE Sinus bradycardia, subjects",[3]; [5],2
same,Subjects with any TRAE,[3]; [6],9
same,"TRAE Anaemia, subjects",[3]; [6],2
same,"TRAE Aspartate aminotransferase increased, subjects",[3]; [6],1
same,"TRAE Diarrhoea, subjects",[3]; [6],2
same,"TRAE Fatigue, subjects",[3]; [6],3
same,"TRAE Nausea, subjects",[3]; [6],3
same,"TRAE Sinus bradycardia, subjects",[3]; [6],7
same,Subjects with any TRAE,[3]; [7],9
same,"TRAE Anaemia, subjects",[3]; [7],3
same,"TRAE Aspartate aminotransferase increased, subjects",[3]; [7],1
same,"TRAE Diarrhoea, subjects",[3]; [7],3
same,"TRAE Fatigue, subjects",[3]; [7],1
same,"TRAE Nausea, subjects",[3]; [7],4
same,"TRAE Sinus bradycardia, subjects",[3]; [7],3
same,Subjects with any TRAE,[3]; [8],5
same,"TRAE Anaemia, subjects",[3]; [8],1
same,"TRAE Aspartate aminotransferase increased, subjects",[3]; [8],2
same,"TRAE Diarrhoea, subjects",[3]; [8],0
same,"TRAE Fatigue, subjects",[3]; [8],1
same,"TRAE Nausea, subjects",[3]; [8],1
same,"TRAE Sinus bradycardia, subjects",[3]; [8],0
same,"dose-limiting toxicity (DLT)s, number","[3]; 600 mg QD cohort, Grade 3 fatigue and Grade 3 rash morbilliform, as of Apr. 20, 2019",Two
same,"sinus bradycardia, dose or concentration dependence","[3]; 46 patients, 100 to 600 mg QD",does not appear to be dose- or concentration-dependent
same,TRAEs ≥Grade 4,"[3]; 46 patients, 100 to 600 mg QD, as of Apr. 20, 2019",no TRAEs ≥Grade 4
same,"Grade 3 TRAEs, number","[3]; 46 patients, 100 to 600 mg QD, two at 450 mg, four at 600 mg, as of Apr. 20, 2019",Six
same,Subjects with any TRAE,[3]; [9],33
same,"TRAE Anaemia, subjects",[3]; [9],7
same,"TRAE Aspartate aminotransferase increased, subjects",[3]; [9],5
same,"TRAE Diarrhoea, subjects",[3]; [9],7
same,"TRAE Fatigue, subjects",[3]; [9],8
same,"TRAE Nausea, subjects",[3]; [9],9
same,"TRAE Sinus bradycardia, subjects",[3]; [9],12
same,dose-limiting toxicities,"[3]; as of 10 Dec. 2018, 32 patients, 100 to 450 mg/day",No dose-limiting toxicities
same,"Grade 3 treatment related adverse events (TRAE), number","[3]; as of 10 Dec. 2018, 32 patients, 100 to 450 mg/day, lymphocyte count decrease",one
same,tolerability,"[3]; as of 10 Dec. 2018, H3B-6545 drug product",well-tolerated up to the 450 mg dose level
same,grade of TRAEs,[3]; [10],Most TRAEs were grade 1 or 2 and manageable
same,tolerated dose,[3]; [10],tolerated up to and including 450 mg QD
